Experimental data published in patent US7473711B2, “Androgen modulators” (Pfizer Inc., priority 2004, dated 2009).
Read-outs that look alike come from different tables or passages of the source.

Key:
sebum production = assay: Animal model for inhibition of sebum production (hamster ear, HPLC of sebum lipids); format: in vivo, male Syrian hamsters; details: 4 weeks; for Sum CE + WE: sum of CE and WE reductions; for % Reduction in CE / % Reduction in WE: five days a week; for % Reduction in CE: cholesterol ester vs vehicle control; for % Reduction in WE: wax ester vs vehicle control
Experimental: Animal Model for Inhibition of Sebum Production
Luderschmidt et al describes an animal model for testing whether compounds are capable of modulating sebum secretion. Arch. Derm. Res. 258, 185-191 (1977). This model uses male Syrian hamsters, whose ears contain sebaceous glands. The products of Examples 24, 27 and 28 were screened in this model.
Testing for sebum inhibition was carried out in the following manner. Male Syrian hamsters aged 9 to 10 weeks were introduced into the laboratory environment and acclimated for 2 weeks prior to use in the study. Each group consisted of 5 animals and run in parallel with vehicle and positive controls. Prior to administration, a sufficient quantity each compound was dissolved in 1 mL of a solvent consisting of transcutanol, ethanol, and propylene glycol (20/60/20% v/v) to achieve a final concentration of 0.5 w/v % or 3.0 w/v %.
Animals were dosed topically twice daily, five days a week, for 4 weeks. Each dose consisted of 25 micro liters of vehicle control or drug. The dose was applied to the ventral surfaces of both the right and left ears. All animals were sacrificed approximately 18-24 hours after the final dose. The right ears were collected from each animal and used for sebum analysis.
The ears were prepped for HPLC analysis in the following manner. One 8 mm distal biopsy punch was taken, just above the anatomical “V” mark in the ear to normalize the sample area. The punch was pulled apart. The ventral biopsy surface (the area where the topical dose was directly applied to the sebaceous glands) was retained for testing and the dorsal surface of the biopsy punch was discarded.
Tissue samples were blown with N2 gas and stored at −80° C. under nitrogen until HPLC analysis. In addition to ear samples, an aliquot of each drug and vehicle (at least 250 ul) was also stored at −80° C. for inclusion in the HPLC analysis.
HPLC analysis was carried out on an extract of the tissue sample. Tissue samples were contacted with 3 ml of solvent (a 4:1 admixture of 2,2,4-trimethylpentane and isopropyl alcohol). The mixture was shaken for 15 minutes and stored overnight at room temperature, protected from light. The next morning 1 milliliter of water was added to the sample and shaken for 15 minutes. The sample was then centrifuged at approximately 1500 rpm for 15 minutes. Two ml of the organic phase (top layer) was transferred to a glass vial, dried at 37° C., under nitrogen, for approximately 1 hour, and then lyophilized for approximately 48 hours. The samples were then removed from the lyophilizer and each vial was reconstituted with 600 μl of solvent A (trimethylpentane/tetrahydrofuran (99:1). The samples were then recapped and vortexed for 5 minutes.
200 μl of each sample was then transferred to a pre-labeled 200 μl HPLC vial with 200 μL glass inserts. The HPLC vials were placed in the autosampler tray for the Agilent 1100 series HPLC unit. The Agilent 1100 HPLC system consisted of a thermostated autosampler, a quarternary pump, a column heater, and an A/D interface module. All components were controlled by Agilent ChemStation software. A Waters Spherisorb S3W 4.6×100 mm analytical column was maintained at 30° C. by the Agilent column heater unit. The HPLC autosampler was programmed to maintain the sample temperature at 20 C throughout the run.
10 uL of each sample was injected in triplicate into the column. Two solvents were used for the solvent gradient. Solvent A was an admixture of trimethylpentane and tetrahydrofuran (99:1). Solvent B was ethylacetate. The gradient utilized is described in the table below: […]
The Sedex 75 Evaporative Light Scattering Detector (ELSD) was operated at 45° C. with a gain of 5, and N2 pressure maintained at 3.1 bar. Analog signal obtained by the instrument was sent to the Agilent A/D interface module where it was converted to a digital output. The conversion was based on a 10000 mAU/volt set point and the data rate was set at 10 Hz (0.03 min). […]

[1] = molecular target: T1, hAR (human androgen receptor) (Homo sapiens, UniProt P10275); assay: Competitive binding analysis on hAR extracts with 3H-DHT tracer
T1 construct: made in house; host or cells: baculovirus/Sf9 insect cells (extract)
T1 sequence (P10275 1-920): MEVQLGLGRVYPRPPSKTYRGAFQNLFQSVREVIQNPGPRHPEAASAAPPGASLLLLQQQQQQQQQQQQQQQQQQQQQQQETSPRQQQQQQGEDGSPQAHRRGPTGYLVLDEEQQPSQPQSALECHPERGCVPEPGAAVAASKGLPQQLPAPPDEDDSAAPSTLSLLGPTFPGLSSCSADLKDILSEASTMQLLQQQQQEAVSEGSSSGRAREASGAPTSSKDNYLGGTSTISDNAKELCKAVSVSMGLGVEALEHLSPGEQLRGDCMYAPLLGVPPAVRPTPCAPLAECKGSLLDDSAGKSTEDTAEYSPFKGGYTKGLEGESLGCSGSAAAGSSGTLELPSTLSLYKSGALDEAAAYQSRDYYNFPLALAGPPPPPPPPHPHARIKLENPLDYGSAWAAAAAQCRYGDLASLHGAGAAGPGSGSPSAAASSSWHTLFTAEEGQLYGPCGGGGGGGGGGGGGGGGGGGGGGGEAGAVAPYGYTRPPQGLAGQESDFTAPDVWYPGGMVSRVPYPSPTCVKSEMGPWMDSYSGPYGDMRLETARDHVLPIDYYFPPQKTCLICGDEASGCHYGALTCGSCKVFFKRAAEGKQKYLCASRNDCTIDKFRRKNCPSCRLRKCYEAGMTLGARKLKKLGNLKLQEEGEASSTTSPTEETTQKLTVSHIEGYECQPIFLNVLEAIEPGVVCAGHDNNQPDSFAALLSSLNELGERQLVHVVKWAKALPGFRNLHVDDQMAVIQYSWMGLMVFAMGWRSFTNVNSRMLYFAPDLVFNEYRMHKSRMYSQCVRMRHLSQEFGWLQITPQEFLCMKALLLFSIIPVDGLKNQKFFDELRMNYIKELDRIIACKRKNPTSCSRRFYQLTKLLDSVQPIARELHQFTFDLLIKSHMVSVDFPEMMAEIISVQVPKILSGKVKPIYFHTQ
Experimental: The compounds of Formula I have affinity for the androgen receptor. […] The description below describes how the assay was carried out.
Competitive binding analysis was performed on baculovirus/Sf9 generated hAR extracts in the presence or absence of different concentrations of test agent and a fixed concentration of ^3H-dihydrotestosterone (^3H-DHT) as tracer. This binding assay method is a modification of a protocol previously described (Liao S., et. al. J. Steroid Biochem. 20:11-17 1984). Briefly, progressively decreasing concentrations of compounds are incubated in the presence of hAR extract (Chang et al. P.N.A.S. Vol. 89, pp. […], 1992), hydroxylapatite, and 1 nM ^3H-DHT for one hour at 4° C. Subsequently, the binding reactions are washed three times to completely remove excess unbound ^3H-DHT. hAR bound ^3H-DHT levels are determined in the presence of compounds (i.e. competitive binding) and compared to levels bound when no competitor is present (i.e. maximum binding). Compound binding affinity to the hAR is expressed as the concentration of compound at which one half of the maximum binding is inhibited. Table II below provides the results that were obtained for selected compounds (reported data is the mean of multiple tests as shown below)

[2] = 0.5 w/v % topical twice daily, negative = increase in sebum

SMILES	Sum CE + WE (sebum production; 0.5 w/v % topical twice daily)	% Reduction in CE (sebum production; [2]) [%]	% Reduction in WE (sebum production; [2]) [%]	IC50 ([1]; baculovirus/Sf9 hAR extract, 1 nM 3H-DHT, one hour at 4° C, mean of multiple tests, read-out: AR Binding IC50) [nM]	Sum CE + WE (sebum production; 3 w/v % topical twice daily)	% Reduction in CE (sebum production; 3 w/v % topical twice daily) [%]	% Reduction in WE (sebum production; 3 w/v % topical twice daily) [%]	IC50 [1] [nM]
N#Cc1ccc(OCCCCCOc2ccc(C#N)c(C(F)(F)F)c2)cc1C(F)(F)F [Example 24]	−74	−33	−41	128				
N#Cc1ccc(OC(CO)COc2ccccc2)cc1C(F)(F)F (stereo not drawn) [Example 28, 4-(1-Hydroxymethyl-2-phenoxy-ethoxy)-2-trifluoromethyl-benzonitrile]					40	11	19	81
COCC(COc1ccccc1)Oc1ccc(C#N)c(C(F)(F)F)c1 (stereo not drawn) [Example 27, 4-(1-Methoxymethyl-2-phenoxy-ethoxy)-2-trifluoromethyl-benzonitrile]					147	63	84	5
